From patent US9896512B2, “Antitumor peptide derived from a complementarity determining region of a humanized monoclonal antibody to NAP12B transporter” (Recepta Biopharma S.A., priority 2010, dated 2018)
“Also recorded” adds a separate entry of the source. No end group written: not given here.

What was measured:
tumor cells = assay: Cell adherence assay (detachment with trypsin/EDTA); assay type: cell-based; details: for adherence at peptide concentration of 1 mM (not suspended by trypsin/EDTA): 1 mM peptide; for adherence of tumor cells to the substrate: 96-well plates, RPMI 10% FCS, seen in B16F10-Nex2.1, U87MG, A5028 melanoma, SKBR3, SiHa, HCT cells
Protocol: At a lower dose, cells would be detached with trypsin/EDTA at rates inversely proportional to the peptide concentration. Conceivably, peptides RB9 and RB10 affected the cytoskeleton dynamics of cells, thus signaling increased cell adhesion.
B16F10-Nex2.1 cells (5×10^3) and U87-MG cells (1×10^4) were cultivated in 96-well plates and incubated with different concentrations of RB9 (SEQ ID NO: 8) and RB10 (SEQ ID NO: 9) from 0.01 to 1 mM (i.e., 0.01, 0.05, 0.1, 0.25, 0.7, 0.8 and 1 mM of RB9 and RB10 for B16F10-Nex 2.1 cells; and 0.25, 0.5, 0.75 and 1 mM of RB9 and RB10 for U87-MG cells). After 18 hours incubation, viable cells detached with trypsin/EDTA were counted using Trypan blue exclusion staining. All assays were performed in triplicate in two independent experiments.
(§1) SKBR3 cells (1×10^4) were cultivated in 96-well plates and incubated with RB9 (SEQ ID NO: 8) and RB10 (SEQ ID NO: 9). After 18 hours incubation, viable cells detached with trypsin/EDTA were counted using Trypan blue exclusion staining. Assays were performed in triplicate in two independent experiments. The A2058 human melanoma cells (1×10^4) were incubated for 4 hours at 37° C. in a humidified chamber with 5% CO2. Fresh media containing different peptide concentrations of RB9 and RB10 ranging from 0 to 1 mM (i.e., 0, 0.25, 0.5 and 1 mM) was added to the wells and incubated for 24 hours. The media was then aspirated, cells were detached with 30 μl/well of trypsin-EDTA for five minutes at 37° C. and viable cells were counted in a Neubauer chamber using Trypan blue. As shown in FIGS. 2A-2D, 50% of cells were trypsin-EDTA resistant at 630 and 610 μM RB9 and RB10, respectively.

[1] = tested on: B16F10-Nex2 melanoma cells; assay: Cell migration, wound healing assay; assay type: cell-based, murine; details: for inhibition of cell migration (words): peptide 500 μM, 24 hours after wounding
Protocol: (§2) For the migration studies, 5×10^5 or 10^6 cells were distributed on 6-well plates and let them to adhere for 2 hours at 37° C./5% CO2. The culture medium was changed and the peptide was added at 500 μM overnight. The cell monolayer was “wounded” with a P1000 tip and incubated for 24 hours. Images of untreated cells (control) and peptide treated cells were captured with a JENOPTIK camera. Cell numbers (nuclei) were determined using the Pixcavator software version 5.0.
Viable B16F10-Nex2 cells (5×105)/well were distributed on a 6-well culture plate and incubated overnight at 37° C. in a humidified chamber with 5% CO2. A P1000 tip was used for wounding the cell monolayer and the image was immediately captured (0 hour) using a camera (Jenoptik) with the software Progres 2.8. After 24 hours a new image of the same field was obtained and recorded (24 hours).
Viable B16F10-Nex2 cells (3×10^5)/well were distributed in a 12-well culture plate and incubated for 4 hours at 37° C. in a humidified chamber with 5% CO2. Fresh medium containing RB10 (SEQ ID NO: 9) at different concentrations was added to the wells and incubated again for 4 hours. The monolayer wounding was performed as described above in Example 12, and images obtained accordingly. After 24 hours a new image in the same field was obtained and recorded (24 hours). […] Magnification ×100.

[2] = tested on: human glioblastoma U87 cells; assay: Cell migration, wound healing assay; assay type: cell-based; details: peptide 500 μM, 24 hours
Protocol: as §2

[3] = tested on: human cervix cancer SiHa cells; assay: Cell migration, wound healing assay; assay type: cell-based; details: peptide 500 μM, 24 hours
Protocol: as §2

OVCAR-3 cells = assay: Effect on ovarian carcinoma cells (trypsin-EDTA detachment, Trypan blue or MTT); assay type: cell-based, human; details: for cytotoxicity / activity against OVCAR-3 cells: 0 to 1 mM, 24 hours, Trypan blue / MTT; for hyper-adherent effect (detachment with trypsin/EDTA): up to 1 mM peptide
Protocol: Viable OVCAR-3 cells (1×10^4)/well were distributed on a 96-well culture plate and incubated for […] with different concentrations of RB9 (SEQ ID NO: 8) ranging from 0 to 1 mM for 24 hours. Cells were detached with 30 μl/well of trypsin-EDTA for five minutes at 37° C. and counted in a Neubauer chamber with Trypan blue or estimated by the colorimetric MTT assay.

SiHa cells = assay: Detection of peptide-treated hyper adherent cells (MTT after trypsin-EDTA); assay type: cell-based, human; details: 500 μM peptide, 24 hours
Protocol: Viable SiHa cells (1×10^4)/well were distributed on a 96-well culture plate and incubated for 4 hours at 37° C. in a humidified chamber with 5% CO2. Fresh medium containing different peptide concentrations of RB9 (SEQ ID NO: 8) and RB10 (SEQ ID NO: 9) ranging from 0 to 1 mM (i.e., 0, 0.25, 0.5 and 1 mM) was added to the wells and incubated for 24 hours. The medium was then aspirated; cells were detached with 30 μl/well of trypsin-EDTA for five minutes at 37° C. and gently washed with PBS. Hyper-adherent cells were incubated for 4 hours with 0.5 mg/mL of MTT [3-(4,5-dimethylthiazol-2-yl)-2,5-diphenyltetrazolium bromide] in fresh medium and formazan crystals were solubilized adding 1 volume of 10% SDS solution overnight. Intensity was measured using a plate reader at 570 nm.

[4] = tested on: B16F10-Nex2 melanoma cells; assay: In vivo protection against lung colonization (metastatic melanoma model); set-up: species or system C57B1/6 mice; details: 250 μg i.p. on days 1, 3, 5, 7, 9, 11; lungs after 22 days
Protocol: Details of the in vitro tumor cell growth, cytotoxicity tests, determination of viable cells and in vivo protection experiments with B16F10 cells in a mouse metastatic model are described in Polonelli et al. (PLoS One. 3(6):e2371, 2008) and Dobroff et al. (Translat. Onc., 3: 204-217, 2010).
Peptides RB9 and RB10 along with the apoptotic peptide A4H3, a true microantibody of cytotoxic anti-melanoma mAb (A4) (Dobroff et al., Translat. Onc., 3: 204-217, 2010), were tested for their protective effects against lung colonization by B16F10-Nex2 melanoma cells (2×105) injected intravenously in C57B1/6 mice (6 animals/group). Peptides were intraperitoneally administered (250 μg i.p.) on days 1, 3, 5, 7, 9, 11 after tumor cell challenge. Lungs of peptide-treated animals are shown in FIG. 5 after 22 days of tumor challenge. As noticed, peptide treatment was interrupted 10 days before animal sacrifice.
In vivo protection by peptides RB9 and RB10 (and A4H3 control) against lung colonization by B16F10-Nex2 melanoma cells (2×105) injected intravenously in C57B1/6 mice (6 animals/group) is shown in FIG. 6. The other 5 CDRs of RebMab200 (SEQ ID NOs: 7, 10, 11, 12, 13) were unprotective in vivo. Peptides were administered in the same way as described above, and the number of lung nodules was determined.

[5] = tested on: A2058 human melanoma cells; assay: Cell adherence, trypsin-EDTA detachment, Trypan blue count; assay type: cell-based; details: 24 hours; FIGS. 2A-2D (SKBR3 and A2058), cell line not given; read-out: peptide concentration at which 50% of cells were trypsin-EDTA resistant
Protocol: as §1

| Compound | adherence at peptide concentration of 1 mM (not suspended by trypsin/EDTA) (tumor cells) | adherence of tumor cells to the substrate (tumor cells) | inhibition of cell migration (words) [1] | inhibition of cell migration [2] | inhibition of cell migration [3] | cytotoxicity / activity against OVCAR-3 cells (OVCAR-3 cells) | hyper-adherent effect (detachment with trypsin/EDTA) (OVCAR-3 cells) | tumor cells resistant to trypsinization (SiHa cells) [%] | protection against lung colonization (lung nodules) [4] | EC50 [5] [µM] | inhibition of cell migration ([1]; 30 μM, 24 hours) | inhibition of cell migration ([1]; 500 μM, 24 hours) [%] | migration inhibition, dose dependence ([1]; different concentrations, 24 hours) |
| --- | --- | --- | --- | --- | --- | --- | --- | --- | --- | --- | --- | --- | --- |
| C[C@@H]1NC(=O)[C@H](CCCNC(=N)N)NC(=O)[C@H](C)NC(=O)[C@H]([C@@H](C)O)NC(=O)[C@H](CCC(=O)O)NC(=O)CNC(=O)[C@H](CCCNC(=N)N)NC(=O)[C@H](C)NC(=O)[C@@H](N)CSSC[C@@H](C(N)=O)NC(=O)CNC(=O)[C@H](CCC(N)=O)NC(=O)CNC(=O)[C@H](Cc2c[nH]c3ccccc23)NC(=O)[C@H](Cc2ccc(O)cc2)NC(=O)[C@H](C)NC(=O)[C@H](Cc2ccccc2)NC(=O)[C@H]([C@@H](C)O)NC1=O [RB9, CARGETARATFAYWGQGC-NH2] | hyper-adherence | dose dependent increase of adherence | Total inhibition; also recorded: complete inhibition | poorly; also recorded: partial inhibition | no effect; also recorded: non-inhibition | inactive; also recorded: no significant decrease in viability; also recorded: lack of cytotoxicity | normally detached; also recorded: most cells were unaffected | 30 | successfully protected; also recorded: reduced | 630 |  |  |  |
| CARGETARATFAYWGQG-NH2 [RB10, CARGETARATFAYWGQG-NH2] | hyper-adherence | dose dependent increase of adherence | Total inhibition; also recorded: inhibited; also recorded: complete inhibition | partial migration inhibition | complete or almost complete inhibition | inactive | normally detached | 80 | successfully protected; also recorded: protective; also recorded: reduced | 610 | more than 30% | 100 | dose-dependent inhibition |
